Species: Rattus norvegicus
Experiment: Open TG-GATES - Regimen: Single
Format: toxicity, organism-based, Sprague-Dawley
Set-up: regimen Single, gender Male, age 6 weeks
Conditions: in vivo, po, 60 mg/kg, route gavage, dose level High; for APTT / Bas / Eos / Fbg / Hb / Ht / Lym / MCH / MCHC / MCV / Mono / Neu / PT / Plat / RBC / Ret / WBC: tissue Blood; for LIVER: tissue Liver; for A/G / ALP / ALT / AST / BUN / CRE / Ca / Cl / DBIL / GLC / IP / K / LDH / Na / PL / RALB / TBIL / TC / TG / TP / gamma-GTP: tissue Plasma

## O=[N+]([O-])c1ccc(O)c([N+](=O)[O-])c1 [2,4-DINITROPHENOL]
3 h
  TERMINAL_BW: 203.7 g
  APTT: 17.2 s
  Bas: 0%
  Eos: 0.4%
  Fbg: 232.6 mg/dL
  Hb: 12.5 g/dL
  Ht: 37.7%
  Lym: 79.6%
  MCH: 21.3 pg
  MCHC: 33.4%
  MCV: 63.9 fL
  Mono: 7%
  Neu: 13.2%
  PT: 12.4 s
  Plat: 127.8 x10_4/uL
  RBC: 590 x10_4/ul
  Ret: 8.6%
  WBC: 75.8 x10_2/uL
  LIVER: 8.6 g
  A/G: 2.6
  ALP: 1665.4 IU/L
  ALT: 39.6 IU/L
  AST: 95.6 IU/L
  BUN: 19 mg/dL
  CRE: 0.5 mg/dL
  Ca: 11.4 mg/dL
  Cl: 103.6 meq/L
  DBIL: 0.014 mg/dL
  GLC: 236.8 mg/dL
  IP: 11.4 mg/dL
  K: 4.5 meq/L
  LDH: 215 IU/L
  Na: 137 meq/L
  PL: 129.4 mg/dL
  RALB: 3.9 g/dL
  TBIL: 0.026 mg/dL
  TC: 77.6 mg/dL
  TG: 56.8 mg/dL
  TP: 5.4 g/dL
  gamma-GTP: 0 IU/L
6 h
  TERMINAL_BW: 206.8 g
  APTT: 16.1 s
  Bas: 0%
  Eos: 0.4%
  Fbg: 247.6 mg/dL
  Hb: 12.6 g/dL
  Ht: 38%
  Lym: 70.4%
  MCH: 21.8 pg
  MCHC: 33.3%
  MCV: 65.6 fL
  Mono: 9.4%
  Neu: 19.8%
  PT: 11.7 s
  Plat: 116.6 x10_4/uL
  RBC: 580.4 x10_4/ul
  Ret: 10%
  WBC: 114 x10_2/uL
  LIVER: 8.7 g
  A/G: 2.7
  ALP: 1501.4 IU/L
  ALT: 36.2 IU/L
  AST: 96.6 IU/L
  BUN: 20.6 mg/dL
  CRE: 0.6 mg/dL
  Ca: 11.4 mg/dL
  Cl: 106.6 meq/L
  DBIL: 0.012 mg/dL
  GLC: 245.4 mg/dL
  IP: 10.2 mg/dL
  K: 4.3 meq/L
  LDH: 245.4 IU/L
  Na: 138.6 meq/L
  PL: 150.4 mg/dL
  RALB: 4 g/dL
  TBIL: 0.026 mg/dL
  TC: 93.4 mg/dL
  TG: 31.4 mg/dL
  TP: 5.5 g/dL
  gamma-GTP: 0 IU/L
9 h
  TERMINAL_BW: 192.8 g
  APTT: 16.1 s
  Bas: 0%
  Eos: 0.5%
  Fbg: 244.8 mg/dL
  Hb: 12.6 g/dL
  Ht: 37.6%
  Lym: 74.5%
  MCH: 21.8 pg
  MCHC: 33.5%
  MCV: 65 fL
  Mono: 5.8%
  Neu: 19.2%
  PT: 11.9 s
  Plat: 117.2 x10_4/uL
  RBC: 579.2 x10_4/ul
  Ret: 8.8%
  WBC: 92.8 x10_2/uL
  LIVER: 7.3 g
  A/G: 2.5
  ALP: 1343 IU/L
  ALT: 32.2 IU/L
  AST: 87.2 IU/L
  BUN: 20 mg/dL
  CRE: 0.5 mg/dL
  Ca: 11.1 mg/dL
  Cl: 108 meq/L
  DBIL: 0.02 mg/dL
  GLC: 247.5 mg/dL
  IP: 9.7 mg/dL
  K: 4.7 meq/L
  LDH: 154.8 IU/L
  Na: 138.2 meq/L
  PL: 146.5 mg/dL
  RALB: 3.8 g/dL
  TBIL: 0.0225 mg/dL
  TC: 88.2 mg/dL
  TG: 56.2 mg/dL
  TP: 5.4 g/dL
  gamma-GTP: 0.5 IU/L
24 h
  TERMINAL_BW: 207.1 g
  APTT: 15.7 s
  Bas: 0%
  Eos: 0.8%
  Fbg: 263.6 mg/dL
  Hb: 13.3 g/dL
  Ht: 39.9%
  Lym: 71%
  MCH: 21.6 pg
  MCHC: 33.3%
  MCV: 64.7 fL
  Mono: 8%
  Neu: 20.4%
  PT: 11.7 s
  Plat: 123.2 x10_4/uL
  RBC: 617.2 x10_4/ul
  Ret: 8.5%
  WBC: 120.4 x10_2/uL
  LIVER: 10.7 g
  A/G: 2.4
  ALP: 1582.4 IU/L
  ALT: 35.6 IU/L
  AST: 73.8 IU/L
  BUN: 19.2 mg/dL
  CRE: 0.4 mg/dL
  Ca: 11.6 mg/dL
  Cl: 105.2 meq/L
  DBIL: 0.018 mg/dL
  GLC: 176.2 mg/dL
  IP: 6.4 mg/dL
  K: 4.6 meq/L
  LDH: 149.2 IU/L
  Na: 140 meq/L
  PL: 173 mg/dL
  RALB: 4 g/dL
  TBIL: 0.018 mg/dL
  TC: 93.4 mg/dL
  TG: 169.6 mg/dL
  TP: 5.7 g/dL
  gamma-GTP: 0.8 IU/L

— ChEMBL document CHEMBL3885861, “Open TG-GATES”
